The target of data set [1] is T1, enzyme FAAH (Fatty Acid Amide Hydrolase) (Mus musculus, UniProt O08914).
T1 construct: The membrane homogenates are prepared extemporaneously by homogenizing the tissues; from tissue; host or cells: mouse brain (minus the cerebellum), homogenate
T1 sequence (O08914 1-579): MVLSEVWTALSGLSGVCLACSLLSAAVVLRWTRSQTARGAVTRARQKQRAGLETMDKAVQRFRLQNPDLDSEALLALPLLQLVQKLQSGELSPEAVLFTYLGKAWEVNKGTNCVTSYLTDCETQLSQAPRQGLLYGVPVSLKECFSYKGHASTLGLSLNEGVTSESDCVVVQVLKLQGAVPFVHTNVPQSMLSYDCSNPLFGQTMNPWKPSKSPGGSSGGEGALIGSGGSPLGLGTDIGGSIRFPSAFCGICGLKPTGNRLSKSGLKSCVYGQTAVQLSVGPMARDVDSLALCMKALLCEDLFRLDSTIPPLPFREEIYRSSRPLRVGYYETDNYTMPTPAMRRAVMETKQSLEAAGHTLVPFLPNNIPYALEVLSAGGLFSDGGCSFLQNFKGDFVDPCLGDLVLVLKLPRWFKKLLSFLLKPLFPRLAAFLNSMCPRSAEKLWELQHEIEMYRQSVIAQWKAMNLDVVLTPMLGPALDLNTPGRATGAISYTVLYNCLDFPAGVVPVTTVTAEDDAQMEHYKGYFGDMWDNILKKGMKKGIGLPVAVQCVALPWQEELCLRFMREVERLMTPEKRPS
The experiment in a line: FAAH radio-enzymatic test, hydrolysis of [1-3H ethanolamine] anandamide (protocol 1). In kind it is biochemical. To be noted: mouse brain membrane homogenate, anandamide 10 μM, 20 mins preincubation at 25° C., read-out: IC50 (concentration inhibiting 50% of the control enzymatic activity of FAAH). As to the method:
(§1) The compounds of the invention were subjected to pharmacological tests to determine their inhibitory effect on the enzyme FAAH (Fatty Acid Amide Hydrolase).
Thus, mouse brains (minus the cerebellum) are removed and stored at −80° C. The membrane homogenates are prepared extemporaneously by homogenizing the tissues using a Precellys® machine in the reaction buffer (10 mM Tris-HCl, pH=8, 150 mM NaCl and 1 mM ethylenediaminetetraacetic acid (EDTA)). The enzymatic reaction is performed in 96-well Multiscreen filtration plates in a final volume of 70 μl. Reaction buffer supplemented with fatty acid-free bovine serum albumin (BSA, 1 mg/ml) is used for the enzymatic reaction and the dilution of the compounds and the [1-^3H ethanol-amine] anandamide. The reaction buffer containing BSA (43 μl/well), the diluted test compounds at different concentrations (7 μl/well containing 1% DMSO) and the membrane preparation (10 μl/well, i.e. 200 μg of tissue per test) are successively added to the wells. After preincubation of the compounds with the enzyme at 25° C. for 20 mins, the reaction is started by adding [1-^3H ethanolamine] anandamide. (Specific activity 15-20 Ci/mmol) diluted with cold anandamide (10 μl/well, final concentration 10 μM, 0.01 μCi per test). After incubation for 20 mins at 25° C., the enzymatic reaction is stopped by addition of a […] solution of active charcoal prepared in 1.5M NaCl and 0.5M HCl buffer (50 μl/well). The mixture is stirred for 10 mins and the aqueous phase containing the [1-^3H]ethanolamine is then recovered by filtration under vacuum and counted by liquid scintillation.

Data set [2] deals with T1, enzyme FAAH (Fatty Acid Amide Hydrolase). The experiment in a line: FAAH fluorescence enzymatic test, hydrolysis of AAMC (protocol 2). The data set is classed as biochemical. To be noted: mouse brain homogenate, AAMC 10 μM, 20 mins preincubation at 25° C., 40 mins at 37° C., read-out: IC50 (concentration inhibiting 50% of the control enzymatic activity of FAAH). Here is the method: as §1
Thus, mouse brains (minus the cerebellum) are removed and stored at −80° C. The brain homogenates are prepared extemporaneously by homogenizing the tissues using a Precellys® machine in the reaction buffer (10 mM Tris-HCl, pH=8, 150 mM NaCl and 1 mM ethylenediamine-tetraacetic acid (EDTA)). The enzymatic reaction is performed in black polystyrene 384-well plates in a final volume of 50 μl. Reaction buffer supplemented with fatty acid-free bovine serum albumin (BSA, 1 mg/ml) is used for the enzymatic reaction, dilution of the compounds and dilution of the AAMC. The reaction buffer containing BSA (25 μl/well), the diluted test compounds at different concentrations (5 μl/well containing 1% DMSO) and the membrane preparation (10 μl/well, i.e. 200 μg of tissue per test) are successively added to the wells. After preincubation of the compounds with the enzyme for 20 mins at 25° C., the reaction is started by addition of 10 μl of substrate per well (AAMC, final concentration 10 μM). After incubation for 40 mins at 37° C., the aminomethyl coumarin (AMC) produced is measured by fluorescent counting (Envision plate reader).

The subject of a further data set is male OF1 mice. Description: test of analgesia: PBQ-induced abdominal stretching. The data set is classed as in vivo, mouse. The following applies: 30 mg/kg p.o. at 120 mins before PBQ. Here is the method:
The in vivo activity of the compounds of the invention was evaluated in a test of analgesia.
Thus, the intraperitoneal (i.p.) administration of PBQ (phenylbenzoquinone, 2 mg/kg in 0.9% sodium chloride solution containing 5% ethanol) to male OF1 mice weighing 25 to 30 g causes abdominal stretching, on average 30 torsions or contractions during the period of 5 to 15 mins after injection. The test compounds are administered orally (p.o.) or intraperitoneally (i.p.) suspended in Tween 80 at 0.5%, 60 mins or 120 mins before the administration of PBQ. Under these conditions, the most powerful compounds reduce by 35% to 80% the number of stretches induced by the PBQ, in a dosage range lying between 1 and 30 mg/kg. For example, compound 25 of Table 1 reduces by 50% the number of stretches induced by the PBQ, at a dose of 30 mg/kg p.o. at 120 mins.

The text below walks through data of patent publication US8394787B2, “7-aza-spiro[3.5]nonane-7-carboxylate derivatives, preparation thereof and therapeutic use thereof” (Sanofi, priority 2009, dated 2013).

Broadly, the melting point is the temperature, or range, at which the solid turns liquid.

Molecules are shown by their SMILES.

For `CNC(=O)c1cc(COC(=O)N2CCC3(CC(Oc4ccc(-c5ccc(F)cc5)cc4)C3)C2)on1` (single isomer, unassigned) [Compound 32, 3-methylcarbamoyl-isoxazol-5-ylmethyl 2-(4′-fluorobiphenyl-4-yloxy)-6-aza-spiro[3.4]octane-6-carboxylate], the melting point lay within 149 to 151 °C. Moreover, in data set [1], the IC50 came out at 3 nM.
In the case of `CNC(=O)c1cc(COC(=O)N2CCC3(CC(Oc4ccc(-c5ccc(F)cc5)cc4)C3)C2)on1` (single isomer, unassigned) [Compound 29, 3-methylcarbamoyl-isoxazol-5-ylmethyl 2-(4′-fluorobiphenyl-4-yloxy)-6-aza-spiro[3.4]octane-6-carboxylate], the melting point lay in the range of 135 to 137 °C. For the same compound, in data set [1], the IC50 came to 5.3 nM.
With `CNC(=O)c1cc(COC(=O)N2CCC3(CC2)CC(Oc2ccc(-c4ccc(F)cc4)cc2)C3)on1` [Compound 19, 3-methylcarbamoyl-isoxazol-5-ylmethyl 2-(4′-fluorobiphenyl-4-yloxy)-7-aza-spiro[3.5]nonane-7-carboxylate], the melting point is 174 to 176 °C. Further, in data set [2], the IC50 is 1.7 nM.
Turning to `CNC(=O)c1cc(COC(=O)N2CCC3(CC2)CC(Oc2cccc(-c4ccc(F)cc4)c2)C3)on1` [Compound 7, 3-methylcarbamoyl-isoxazol-5-ylmethyl 2-(4′-fluorobiphenyl-3-yloxy)-7-aza-spiro[3.5]nonane-7-carboxylate], the IC50 in data set [1] stood at 19 nM.
`CNC(=O)c1cc(COC(=O)N2CC3(CC(Oc4ccc(-c5ccc(F)cc5)cc4)C3)C2)on1` [Compound 25, 3-methylcarbamoyl-isoxazol-5-ylmethyl 6-(4′-fluorobiphenyl-4-yloxy)-2-aza-spiro[3.3]heptane-2-carboxylate]: the melting point lay within 163 to 165 °C. The IC50 in data set [2] is 0.46 nM. In addition, the “reduction of the number of stretches induced by the PBQ” value in the data set on male OF1 mice is 50%.
Consider `CNC(=O)c1cc(COC(=O)N2CCC3(CC(Oc4ccc(-c5ccc(F)cc5)cc4)C3)C2)on1` (single isomer, unassigned) [Compound 33, 3-methylcarbamoyl-isoxazol-5-ylmethyl 2-(4′-fluorobiphenyl-4-yloxy)-6-aza-spiro[3.4]octane-6-carboxylate], for which the melting point is 150 to 152 °C. Also, in data set [1], the IC50 is 19 nM.
